Test results taken from US9896445B2, “Heterocyclic inhibitors of ERK1 and ERK2 and their use in the treatment of cancer” (Asana Biosciences, LLC, priority 2015, dated 2018).

Legend:
ERK1 = target: T1, ERK1 (Homo sapiens, UniProt P27361); assay: ERK1 HTRF (biochemical) assay; conditions: HTRF
T1 construct: purchased Jubilant Biosys
Method: ERK1 and ERK2 HTRF (Biochemical) Assays
These assays employed a homogeneous time resolved fluorescence (HTRF) technique. […] The plate was incubated at room temperature for 60 min with shaking. […] The IC50 values (half maximal inhibitory concentration values) were subsequently determined using a sigmoidal dose-response curve (variable slope) in GraphPad Prism® 5 software.

ERK2 = target: T2, ERK2 (Homo sapiens, UniProt P28482); assay: ERK2 HTRF (biochemical) assay; conditions: HTRF
T2 construct: purchased Jubilant Biosys
Procedure, shortened: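 Compounds were tested as half-log dilutions from 0.0005 to 10 uM in Tris pH 7.5/MgCl2 buffer, with a substrate mix of 1 uM biotin-MBP peptide and 24 uM ATP and an enzyme mix of 25 nM ERK2. Reaction ran 60 min at room temperature. Phospho-MBP was detected by HTRF (Eu-anti-phospho-MBP/SA-APC, 665/620 nm), and IC50 was fitted with a variable-slope sigmoidal curve.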

T1 sequence (P27361 whole entry): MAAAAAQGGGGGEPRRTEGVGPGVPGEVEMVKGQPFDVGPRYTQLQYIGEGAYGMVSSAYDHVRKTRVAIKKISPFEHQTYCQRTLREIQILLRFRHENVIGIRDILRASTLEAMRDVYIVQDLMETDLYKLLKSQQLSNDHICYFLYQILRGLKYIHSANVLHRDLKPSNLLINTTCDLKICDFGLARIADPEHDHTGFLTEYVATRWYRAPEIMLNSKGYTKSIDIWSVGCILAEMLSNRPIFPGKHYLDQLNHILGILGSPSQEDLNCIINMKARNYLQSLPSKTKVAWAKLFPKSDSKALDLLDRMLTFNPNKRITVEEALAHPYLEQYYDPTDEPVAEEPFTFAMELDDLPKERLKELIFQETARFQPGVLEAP
T2 sequence (P28482 whole entry): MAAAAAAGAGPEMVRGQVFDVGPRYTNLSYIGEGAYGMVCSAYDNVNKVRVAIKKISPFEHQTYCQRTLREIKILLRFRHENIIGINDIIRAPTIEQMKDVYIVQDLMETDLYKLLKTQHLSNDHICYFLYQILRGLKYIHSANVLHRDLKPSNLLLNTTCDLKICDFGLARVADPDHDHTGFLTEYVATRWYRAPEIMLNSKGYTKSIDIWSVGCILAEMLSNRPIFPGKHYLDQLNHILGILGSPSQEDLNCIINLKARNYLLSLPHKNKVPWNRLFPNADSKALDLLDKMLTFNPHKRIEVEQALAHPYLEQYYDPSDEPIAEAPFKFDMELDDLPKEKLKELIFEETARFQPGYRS

SMILES | IC50 (ERK1) [nM] | IC50 (ERK2) [nM]
Cc1cnc(Nc2ccc3c(c2)OCO3)nc1-n1cnc(C(=O)NC(CN)c2cc(F)cc(Cl)c2)c1 (stereo not drawn) [Example 269, N-(2-amino-1-(3-chloro-5-fluorophenyl)ethyl)-1-(2-(benzo[d][1,3]dioxol-5-ylamino)-5-methylpyrimidin-4-yl)-1H-imidazole-4-carboxamide] | < 50 | ≤ 50
Cc1cnc(N[C@H]2CCOC2)nc1-n1cnc(C(=O)NCc2cccc(Cl)c2CO)c1 [Example 270] | < 50 | ≤ 50
Cc1cnc(NC2CCOCC2)nc1-n1cnc(C(=O)NC(CN)c2ccc(Cl)s2)c1 (stereo not drawn) [Example 274, N-(2-amino-1-(5-chlorothiophen-2-yl)ethyl)-1-(5-methyl-2-((tetrahydro-2H-pyran-4-yl)amino)-pyrimidin-4-yl)-1H-imidazole-4-carboxamide] | < 50 | ≤ 50
Cc1cnc(NC2CCOCC2)nc1-n1cnc(C(=O)N[C@@H](CN)c2cc(F)cc(Cl)c2)c1 [Example 276, (R)-N-(2-amino-1-(3-chloro-5-fluoro-phenyl)ethyl)-1-(5-methyl-2-((tetrahydro-2H-pyran-4-yl)amino)-pyrimidin-4-yl)-1H-imidazole-4-carboxamide] | < 50 | ≤ 50
Cc1cnc(NC2CC(F)(F)C2)nc1-n1cnc(C(=O)NC(CN)c2cc(F)cc(Cl)c2)c1 (stereo not drawn) [Example 278, N-(2-amino-1-(3-chloro-5-fluoro-phenyl)ethyl)-1-(2-((3,3-difluoro-cyclobutyl)amino)-5-methylpyrimidin-4-yl)-1H-imidazole-4-carboxamide] | < 50 | ≤ 50

Continued, values first:

IC50 (ERK1) [nM] | IC50 (ERK2) [nM] | SMILES
< 50 | ≤ 50 | Cc1cnc(NC2CCOc3ccccc32)nc1-n1cnc(C(=O)N[C@H](CN)c2cccc(Cl)c2)c1 (stereo partly drawn) [Example 271, N-((S)-2-amino-1-(3-chlorophenyl)ethyl)-1-(2-(chroman-4-ylamino)-5-methylpyrimidin-4-yl)-1H-imidazole-4-carboxamide]
< 50 | ≤ 50 | Cc1cnc(Nc2cccc(N3CCOCC3)c2)nc1-n1cnc(C(=O)N[C@H](CN)c2cccc(Cl)c2)c1 [Example 272, (S)-N-(2-amino-1-(3-chlorophenyl)ethyl)-1-(5-methyl-2-((3-morpholino-phenyl)amino)pyrimidin-4-yl)-1H-imidazole-4-carboxamide]
< 50 | ≤ 50 | Cc1cnc(NC2CC(F)(F)C2)nc1-n1cnc(C(=O)NCc2cccc(Cl)c2CO)c1 [Example 273, N-(3-chloro-2-(hydroxymethyl)benzyl)-1-(2-((3,3-difluorocyclobutyl)amino)-5-methyl-pyrimidin-4-yl)-1H-imidazole-4-carboxamide]
< 50 | ≤ 50 | Cc1cnc(Nc2ccnn2C)nc1-n1cnc(C(=O)N[C@H](CO)c2cccc(Cl)c2)c1 [Example 277, (S)-N-(1-(3-chlorophenyl)-2-hydroxyethyl)-1-(5-methyl-2-((1-methyl-1H-pyrazol-5-yl)amino)-pyrimidin-4-yl)-1H-imidazole-4-carboxamide]
< 50 | ≤ 50 | Cc1cnc(Nc2ccnn2C)nc1-n1cnc(C(=O)N[C@H](CN)c2cccc(Cl)c2)c1 [Example 280, (S)-N-(2-amino-1-(3-chlorophenyl)-ethyl)-1-(5-methyl-2-((1-methyl-1H-pyrazol-5-yl)amino)-pyrimidin-4-yl)-1H-imidazole-4-carboxamide]
< 50 | ≤ 50 | Cc1cnc(NC2CCOCC2)nc1-n1cnc(C(=O)NCc2nccs2)c1 [Example 281, 1-(5-methyl-2-((tetrahydro-2H-pyran-4-yl)amino)-pyrimidin-4-yl)-N-(thiazol-2-ylmethyl)-1H-imidazole-4-carboxamide]
< 50 | ≤ 50 | Cc1cnc(NC2CCOCC2)nc1-n1cnc(C(=O)NCc2ccccc2CN)c1 [Example 283, N-(2-(amino-methyl)benzyl)-1-(5-methyl-2-((tetrahydro-2H-pyran-4-yl)amino)-pyrimidin-4-yl)-1H-imidazole-4-carbox amide]
